Measured values: paper PMC9503778, “Targeted Isolation of Antibiotic Brominated Alkaloids from the Marine Sponge Pseudoceratina durissima Using Virtual Screening and Molecular Networking” (Marine Drugs, 2022)
≈ marks a conversion by molar mass, not a printed value.

Experiments:
[1] = tested on: HIV; design: method as in earlier work; details: read-out: IC50 against HIV; cited from earlier work
[2] = tested on: S. aureus ATCC 25923; design: method as in PMID 8297426; details: cited from earlier work
[3] = tested on: S. aureus; design: method as in PMID 8297426; details: tested at 100 µg/mL; cited from earlier work
[4] = tested on: zebrafish (Danio rerio) larvae at 5 dpf; assay: Zebrafish larvae simulated predator response (SPR) bioassay; format: in vivo; details: for SPR, profile across concentrations: 10 nM; for SPR, total distance moved vs vehicle control: p < 0.0001
Method: (§1) For the zebrafish bioactivity assay, three experiments were performed on 5 days post fertilization (dpf) zebrafish larvae treated with methanol crude extracts from all four sponge specimens, using total distance moved as an endpoint metric. Spontaneous swimming experiments were performed according to the following protocol: allowing a 2 min acclimatization period in darkness followed by a 5 min darkness swimming period, where total distance moved was measured. Simulated predator response (SPR) experiments were performed involving a 2 min acclimatization period in light conditions, followed by 3 min in light free swimming and a measurement period of 3 mins in dark. Finally, a Larval Photo-motor Response (LPR) experiment was conducted beginning with 2 mins light acclimatization followed by three cycles of alternating photic stimulus (each cycle consisting of 4 min light –4 min dark conditions to assess the profile of the treatment across time, Figure 8.
(§2) Basal behavioral analysis was conducted on zebrafish (Danio rerio) larvae at 5 dpf using an in-house custom-built behavioral analysis system. All assays followed standard protocols as previously described.
(§3) Zebrafish were housed and bred in the AquaCore facility, Monash University, according to standard procedures. Larvae were maintained in E3 media (5mM NaCl, 0.17mM KCl, 0.33 mM CaCl2, 0.33 mM MgSO4, supplemented with 1 x 10 – 5% methylene blue as antimycotic).
(§4) Digital video processing and animal tracking was performed using Ethovision XT ver.16 (Noldus Inc., Wageningen, The Netherlands) using a standardized method as described before.
(§5) All data was averaged across replicate larvae for each treatment and control, respectively, and presented as mean ± SEM. Cumulative distance traveled by larvae was measured by summing the incremental distance moved by each larva between frames of video files. Statistical analysis and data presentation was performed using Prism 8 (GraphPad Software Inc., San Diego, CA, USA). Data sets were tested for outliers and normality of distribution, followed by either one-way or two-way ANOVA testing for significance. […] Where time point data was collected significance was compared for each time domain with that of vehicle controls. Significance was universally set to p < 0.05.

[5] = tested on: zebrafish (Danio rerio) larvae at 5 dpf; assay: Zebrafish larvae spontaneous, unstimulated swimming bioassay; format: in vivo; details: for Spontaneous swimming, mean distance moved: 10 nM and 100 nM, compared with 1 nM
Method: as §1, §2, §3, §4, §5

[6] = tested on: zebrafish (Danio rerio) larvae at 5 dpf; assay: Zebrafish Larval Photo-motor Response (LPR) bioassay; format: in vivo; details: 1 nM, 10 nM and 100 nM
Method: as §1
Basal behavioral analysis was conducted on zebrafish (Danio rerio) larvae at 5 dpf using an in-house custom-built behavioral analysis system. […]
All data was averaged across replicate larvae for each treatment and control, respectively, and presented as mean ± SEM. Cumulative distance traveled by larvae was measured by summing the incremental distance moved by each larva between frames of video files. […]

[7] = tested on: Mediterranean fish species Blennius sphinx; design: method as in PMID 15018063; details: cited from earlier work

| SMILES | SPR, profile across concentrations ([4]; 1 nM, 100 nM) | Spontaneous swimming, profile across concentrations ([5]; 1 nM, 10 nM, 100 nM) | Spontaneous swimming, total distance moved vs vehicle control ([5]; 1 nM, 5 dpf larvae, p < 0.0001) | Spontaneous swimming, mean distance moved [5] | LPR, mean area under the curve across light and dark cycles vs vehicle control [6] | other results |
| --- | --- | --- | --- | --- | --- | --- |
| COC1=C(Br)[C@H](O)[C@](O)(CC#N)C=C1Br [Compound 1, (+)-aeroplysinin-1] | increased hypoactivity with higher concentrations | increased hypoactivity with higher concentrations | significant hyperactivity effects | reduced mean distance moved | reduced hyperactivity at higher concentrations | IC50 [1]: 14.6 µM; MIC against S. aureus ATCC 25923 [2]: 25 µg/mL (≈ 73.8 µM); inhibition zones in disc diffusion assays against S. aureus [3]: large inhibition zones; SPR, total distance moved vs vehicle control ([4]; 1 nM): significant hyperactivity effects |
| COC1(OC)C(Br)=CC(O)(CC(N)=O)C=C1Br [Compound 6, 2-(3,5-dibromo-1-hydroxy-4,4-dimethoxycyclohexa-2,5-dien-1-yl)acetamide] |  |  |  |  |  | Spontaneous swimming, total distance moved vs vehicle control ([5]; 10 nM, p < 0.0001): hyperactivity; Spontaneous swimming, total distance moved ([5]; 100 nM, p < 0.0001): curtailed |
| NC(=O)Cc1c(O)cc(Br)c(O)c1Br [Compound 9, subereaphenol A] |  |  | significant hyperactivity | reduced mean distance moved |  |  |
| COC1=C(Br)[C@H](O)[C@@]2(C=C1Br)CC(C(=O)NCCCCNC(=O)C1=NO[C@]3(C=C(Br)C(OC)=C(Br)[C@@H]3O)C1)=NO2 [Compound 2, aerothionin] | biphasic distribution of mean movement data | biphasic distribution of mean movement data |  |  | biphasic distribution of mean movement data | feeding deterrent activity, Blennius sphinx [7]: significant feeding deterrent activity; Spontaneous swimming, total distance moved vs vehicle control ([5]; all three concentrations (1 nM, 10 nM, 100 nM)): no significant difference to the vehicle control |
| COC1=C(Br)[C@H](O)[C@@]2(C=C1Br)CC(C(=O)NCCCCCNC(=O)C1=NO[C@]3(C=C(Br)C(OC)=C(Br)[C@@H]3O)C1)=NO2 [Compound 3, homoaerothionin] |  | dose dependent hypoactivity effect | significant hyperactivity | reduced mean distance moved |  | SPR, total distance moved vs vehicle control ([4]; 100 nM): Clear hyperactivity |
